From publication PMC11589582, “Structural mechanisms of human sodium-coupled high-affinity choline transporter CHT1” (Cell Discovery, 2024)

Target: T1, sodium-coupled high-affinity choline transporter CHT1 (Homo sapiens, UniProt Q9GZV3)
T1 construct: gene SLC5A7; Full-length human CHT1 (NP_068587.1) with a C-terminal Strep-tag
T1 sequence (Q9GZV3 1-580): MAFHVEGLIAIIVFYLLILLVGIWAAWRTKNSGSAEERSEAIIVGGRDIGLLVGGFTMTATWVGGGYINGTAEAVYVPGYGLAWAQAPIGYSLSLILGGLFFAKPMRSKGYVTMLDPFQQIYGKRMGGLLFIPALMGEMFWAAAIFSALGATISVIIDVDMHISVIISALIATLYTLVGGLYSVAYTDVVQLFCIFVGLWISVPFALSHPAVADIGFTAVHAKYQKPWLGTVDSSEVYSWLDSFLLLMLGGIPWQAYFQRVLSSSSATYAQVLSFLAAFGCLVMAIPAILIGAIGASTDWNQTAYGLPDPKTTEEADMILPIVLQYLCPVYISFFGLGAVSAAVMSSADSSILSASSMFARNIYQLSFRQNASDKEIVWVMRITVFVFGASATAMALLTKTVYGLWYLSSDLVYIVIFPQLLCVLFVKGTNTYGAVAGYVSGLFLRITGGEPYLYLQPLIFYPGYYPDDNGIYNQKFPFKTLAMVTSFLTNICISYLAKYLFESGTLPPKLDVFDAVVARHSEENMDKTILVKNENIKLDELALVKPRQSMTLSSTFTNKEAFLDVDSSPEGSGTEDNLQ
Experiment: cryo-EM structure at […] Å; [3H]-choline uptake inhibition in CHT1-expressing HEK293 cells
Format: cell-based

## C[N+]1(C)CCOC(O)(c2ccc(-c3ccc(C4(O)C[N+](C)(C)CCO4)cc3)cc2)C1 (stereo not shown) [HC3, hemicholinium-3]
  IC50: 4.98 ± 1.04 nM
